Assay results: US20210255193A1, “LYSINE REACTIVE PROBES AND USES THEREOF” (The Scripps Research Institute, priority 2017, published 2021)

Assays:
Test in all cases: competitive isoTOP-ABPP
Type in all cases: binding
[1] = target: T1, ENOPH1 Enolase-phosphatase E1 (Homo sapiens, UniProt Q9UHY7); conditions: 50 uM, in vitro; for isoTOP-ABPP ratio (R) at liganded lysine Q9UHY7_K111: sol, 231; for isoTOP-ABPP reactivity ratio at lysine Q9UHY7_K111 / R value (DMSO/fragment) for probe 1 labeling: 231 sol; for R value (DMSO/fragment) for probe 1 labeling: Q9UHY7_K111
T1 construct: endogenous in cells; host or cells: MDA-MB-231 (soluble fraction of lysate)
How it was run: (§1)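 Cell lysate (0.5 ml) was pre-treated with fragment, 50 μM for activated esters or 100 μM for guanidinylating agents, versus DMSO, then labeled 1 h at ambient temperature with 0.1 mM STP-alkyne. Light/heavy TEV tags attached by CuAAC; R = DMSO/compound MS1 peak-area ratio, median per lysine.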

EEF2 Elongation factor 2 = target: T2, EEF2 Elongation factor 2 (Homo sapiens, UniProt P13639); conditions: 50 uM, in vitro; for isoTOP-ABPP ratio (R) at liganded lysine P13639_K235 / isoTOP-ABPP ratio (R) at liganded lysine P13639_K318: sol, 231; for isoTOP-ABPP reactivity ratio at lysine P13639_K235 / isoTOP-ABPP reactivity ratio at lysine P13639_K318 / R value (DMSO/fragment) for probe 1 labeling: 231 sol
T2 construct: isoTOP-ABPP experiments performed in cell lysates (in vitro); endogenous in cells; host or cells: soluble proteome of human cancer cell lines (MDA-MB-231; Ramos and Jurkat also prepared)
How it was run: as §1

[2] = target: T3, CNOT4 CCR4-NOT transcription complex subunit 4 (Homo sapiens, UniProt O95628); conditions: 50 uM, in vitro; for isoTOP-ABPP ratio (R) at liganded lysine O95628_K134: sol, 231; for isoTOP-ABPP reactivity ratio at lysine O95628_K134 / R value (DMSO/fragment) for probe 1 labeling: 231 sol; for R value (DMSO/fragment) for probe 1 labeling: O95628_K134
T3 construct: isoTOP-ABPP experiments performed in cell lysates (in vitro); endogenous in cells; host or cells: MDA-MB-231 soluble lysate
T3 sequence (O95628 1-575): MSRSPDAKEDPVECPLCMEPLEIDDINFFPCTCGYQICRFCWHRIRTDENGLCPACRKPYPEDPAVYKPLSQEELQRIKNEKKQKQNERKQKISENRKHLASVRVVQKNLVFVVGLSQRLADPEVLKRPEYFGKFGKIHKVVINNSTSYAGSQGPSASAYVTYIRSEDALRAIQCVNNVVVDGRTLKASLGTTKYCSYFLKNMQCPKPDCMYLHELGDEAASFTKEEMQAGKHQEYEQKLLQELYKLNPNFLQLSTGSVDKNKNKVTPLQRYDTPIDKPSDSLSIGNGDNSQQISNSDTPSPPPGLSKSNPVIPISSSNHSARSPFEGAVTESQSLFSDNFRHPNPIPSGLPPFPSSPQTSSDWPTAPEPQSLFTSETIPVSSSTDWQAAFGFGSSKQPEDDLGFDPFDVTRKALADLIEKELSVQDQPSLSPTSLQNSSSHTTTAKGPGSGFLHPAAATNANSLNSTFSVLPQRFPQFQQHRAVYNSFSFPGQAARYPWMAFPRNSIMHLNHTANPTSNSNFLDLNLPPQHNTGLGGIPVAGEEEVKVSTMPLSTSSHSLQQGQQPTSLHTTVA
How it was run: as §1

T1 sequence (Q9UHY7 whole entry, the tested form may be a part): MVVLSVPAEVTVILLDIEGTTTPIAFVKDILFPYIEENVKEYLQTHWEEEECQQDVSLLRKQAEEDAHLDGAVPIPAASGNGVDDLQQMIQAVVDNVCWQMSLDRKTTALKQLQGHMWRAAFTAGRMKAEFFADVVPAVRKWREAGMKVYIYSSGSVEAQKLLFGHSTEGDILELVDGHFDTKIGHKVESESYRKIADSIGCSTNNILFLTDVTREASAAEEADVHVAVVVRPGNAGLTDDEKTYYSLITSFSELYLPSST

Row | Structure (SMILES) | isoTOP-ABPP ratio (R) at liganded lysine Q9UHY7_K111 [1] | isoTOP-ABPP ratio (R) at liganded lysine P13639_K235 (EEF2 Elongation factor 2) | isoTOP-ABPP ratio (R) at liganded lysine P13639_K318 (EEF2 Elongation factor 2) | isoTOP-ABPP ratio (R) at liganded lysine O95628_K134 [2] | isoTOP-ABPP reactivity ratio at lysine Q9UHY7_K111 [1] | isoTOP-ABPP reactivity ratio at lysine P13639_K235 (EEF2 Elongation factor 2) | isoTOP-ABPP reactivity ratio at lysine P13639_K318 (EEF2 Elongation factor 2) | isoTOP-ABPP reactivity ratio at lysine O95628_K134 [2] | also measured
1 | O=C(Oc1ccc([N+](=O)[O-])cc1[N+](=O)[O-])c1ccc2ccccc2n1 [fragment 35, 2,4-Dinitrophenyl quinoline-2-carboxylate] | 1.0 | 1.1 | 1.1 | 1.3 |  |  |  |  | 
2 | CCn1cc(C(=O)Oc2c(F)c(F)c(F)c(F)c2F)c(=O)c2ccc(C)nc21 [fragment 28, Pentafluorophenyl 1-ethyl-7-methyl-4-oxo-1,4-dihydro-1,8-naphthyridine-3-carboxylate] |  |  |  |  | 1.0 | 1.4 | 1.6 | 1.0 | 
3 | O=C(Oc1c(F)c(F)c(F)c(F)c1F)c1cc(C(F)(F)F)cc(C(F)(F)F)c1 [fragment 21, Pentafluorophenyl 3,5-bis(trifluoromethyl)benzoate] |  |  |  |  |  |  |  |  | R value (DMSO/fragment) for probe 1 labeling [1]: 1.0; R value (DMSO/fragment) for probe 1 labeling (EEF2 Elongation factor 2; P13639_K235): 1.1; R value (DMSO/fragment) for probe 1 labeling (EEF2 Elongation factor 2; P13639_K318): 1.2; R value (DMSO/fragment) for probe 1 labeling [2]: 1.2
4 | CC(C)(C)OC(=O)NCCCC(=O)Oc1ccc([N+](=O)[O-])cc1[N+](=O)[O-] [fragment 41, 2,4-Dinitrophenyl 4-((tert-butoxycarbonyl)amino)butanoate] | 1.1 | 1.0 | 1.1 | 1.3 |  |  |  |  | 
5 | O=C(Oc1c(F)c(F)c(F)c(F)c1F)C1CCN(C(=O)OCc2ccccc2)CC1 [fragment 24, 1-Benzyl 4-(pentafluorophenyl) piperidine-1,4-dicarboxylate] |  |  |  |  | 1.4 | 1.1 | 1.2 | 1.0 | 
6 | O=C(Oc1c(F)c(F)c(F)c(F)c1F)c1ccc2ccccc2n1 [fragment 25, Pentafluorophenyl quinoline-2-carboxylate] |  |  |  |  | 1.1 | 1.9 | 2.3 | 1.8 | 
7 | Cn1cc(CC(=O)Oc2ccc([N+](=O)[O-])cc2[N+](=O)[O-])c2ccccc21 [fragment 32, 2,4-Dinitrophenyl 2-(1-methyl-1H-indol-3-yl)acetate] |  |  |  |  | 1.3 | 1.4 | 1.5 | 2.1 | 
8 | COc1cc(CCC(=O)Oc2c(F)c(F)c(F)c(F)c2F)cc(OC)c1OC [fragment 23, Pentafluorophenyl 3-(3,4,5-trimethoxyphenyl)propanoate] |  |  |  |  |  |  |  |  | R value (DMSO/fragment) for probe 1 labeling [1]: 1.3; R value (DMSO/fragment) for probe 1 labeling (EEF2 Elongation factor 2; P13639_K235): 1.6; R value (DMSO/fragment) for probe 1 labeling (EEF2 Elongation factor 2; P13639_K318): 1.6; R value (DMSO/fragment) for probe 1 labeling [2]: 1.2
9 | O=C(Oc1ccc([N+](=O)[O-])cc1[N+](=O)[O-])c1ccc(Oc2ccccc2)cc1 [fragment 39, 2,4-Dinitrophenyl 4-phenoxybenzoate] | 0.8 | 0.9 | 0.9 | 1.0 |  |  |  |  | 
